Reference: US12286439B2, “Inhibitors of ERK nuclear translocation” (Yeda Research and Development Co. Ltd., priority 2018, dated 2025)
*: point of attachment. Myristoyl = CCCCCCCCCCCCCC(=O)*

Experiments:
PC3 cells = experiment: Dose-response analysis, PC3 cells; assay type: cell-based; conditions: 10 μM, 72 hours
Procedure: (§1) FIG. 15A presents dose response curves of compounds C17, D3, D11 and D14 on 8 cancer cells. Five melanoma cell lines (A2185, A2352, A2024, A2058 and LOX-IMVI), HeLa, HCT-116 and PC3 cells were grown in 1% FCS media containing either DMSO (0.1%), EPE peptide (10 μM), or Compounds C17, D3, D11, D14 at the indicated concentrations, for 72 hours. Viable cells were quantified by staining with methylene blue. Data presented as percentage of DMSO control ±SE of triplicates. […] IC50 values were calculated by interpolation in the curves in FIG. 15A. […] Bar graphs represent average viability respect to DMSO control ±SE of triplicates.
(§2) Cell Viability (IC50) Assay:
(§3) Cells were seeded at a density of 4000 cells per well into 96-well plates in complete medium. After 24 hours, medium was replaced by 1% FCS (fetal calf serum) containing appropriate treatments. Fresh medium containing the same agents was replaced every day. After 96 hours, cell viability was assessed using the CellTiter-Glo reagent (Promega; Madison, WI). IC50 values were determined using GraphPad Prism.

[1] = system: ERK1/2 nuclear translocation; experiment: Determination of ERK1/2 localization by fluorescence microscopy after TPA stimulation; assay type: cell-based; conditions: 10 μM, TPA 100 nM, 15 minutes
Procedure: Determination of Protein Localization by Fluorescence Microscopy:
Indicated cells were seeded on coverslips (coated with 0.001% w/v poly-L-lysine or not, depending on the cell line) at 50% confluency. After the indicated treatment, cells were fixed in 4% paraformaldehyde/PBS for 20 minutes on an ice surface, permeabilized with 0.1% Triton X-100/PBS for 5 minutes at 23° C., then blocked in 2% BSA/PBS for 30 minutes at 23° C. The fixed cells were sequentially incubated with appropriate antibodies (in 2% BSA/PBS, 1.5 hour), washed 3 times with PBS^−/−, and followed by incubation with either Cy-2-conjugated or rhodamine-conjugated secondary antibodies (1:200) and with DAPI ([…]; 1:100) in 2% BSA/PBS for 45 minutes. Slides were analyzed and photographed by a fluorescence microscope (Olympus BX51, ×40). Background correction, and contrast adjustment of raw data images were performed using Photoshop (Adobe, CA, USA).
The effect of Z56 was compared with that of the inhibitory effect of EPE peptide on nuclear translocation of ERK1/2.
The effects of the compounds on ERK1/2 nuclear translocation were evaluated in three cell lines (HeLa cells and two melanoma cell lines, A2185 and A2352), by treating the cells with each compound for two hours, and determining nuclear translocation using fluorescent anti-ERK antibodies, according to procedures described hereinabove.

[2] = molecular target: interaction of importin7 and ERK1/2 (Homo sapiens, UniProt O95373); conditions: Plotnikov et al., Nat Commun 2015; cited from earlier work
[3] = system: Panc-1, AsPC-1, CFPAC-1, MIA PaCa-2, Capan-1, Capan-2 and BxPC-3 pancreatic cancer cells; experiment: Viability assay (methylene blue), pancreatic cancer cell lines; assay type: cell-based; conditions: 10 μM, 72 hours
Procedure: FIGS. 6A and 6B present data showing that Compound Z56 prevents proliferation of pancreatic cancer cells. […] Panc-1, AsPC-1, CFPAC-1, Mia PaCa-2, Capan-1, Capan-2 (Ras-transformed) and BxPC-3 (Ras-wild type) pancreatic cancer cells were treated with either EPE peptide (10 μM; middle bars) or Z56 (3 μM; right bars) or DMSO control (0.1%; left bars) in 1% FCS for 72 hours. […] Panc-1, AsPC-1, BxPC-3 and Mia PaCa-2 cells grown in 1% FCS medium containing either EPE peptide (10 μM), 56 (3 μM), PLX4032 (1 μM), PD184352 (5 μM) or DMSO control (0.1%). The graphs present the kinetics of cell proliferation at the indicated times after the treatment started. Quantification of all viable cells was done by methylene blue and repeated 3 times in triplicates. All results presented as a fold change of the initial cell number and represent averages ±SE.
(§4) Cells were seeded at low confluence into 24, 48 or 96-well plates in complete medium. After 24 hours, medium was replaced by 1% FCS (fetal calf serum) containing appropriate treatments. Fresh medium containing the same agents was replaced every day. After 72 or 96 hours of treatment, cells were fixed with 4% formaldehyde overnight at 23° C., washed once with 0.1 M borate buffer (pH 8.5) for 10 minutes, and stained with of 1% methylene blue in 0.1 M borate buffer (pH 8.5) for 30 minutes. Excess stain was washed out with distilled water. Color was extracted by adding 0.1 M HCl (3 hours, 23° C.), and absorbance measured at 595 nm in an ELISA reader. For time course experiments, attached cells were fixed and measured at 0, 24, 48, 72 and 96 hours. For dose-response experiments, cells were treated with indicated concentrations of reagent, fixed and stained after 72 hours as above.
Activating mutations in Ras are found in more than 95% of pancreatic cancers where signaling through both Raf and Akt pathway drives cancer progression [Campbell et al., Cancer Res 2007, 67:2098-2106]. However, no effective treatments that target this mutant protein have reached the clinic to date, and pancreatic ductal adenocarcinoma remains an almost universally fatal disease [Bryant et al., Trends Biochem Sci 2014, 39:91-100]. Therefore, treating these pancreatic cancer cells downstream of Ras, without overactivating the Akt pathway, should be at least partially beneficial. The effect of Compound Z56 (and EPE peptide) on cell viability of Ras-transformed (and Ras-wild type) pancreatic cancer cells was determined, using a variety of cell lines.
The effects of Compound Z56 on the viability of pancreatic cancer cell lines at various times after treatment was compared with those of PLX4032 (a B-Raf inhibitor) and PD184352 (a MEK1/2 inhibitor).

A2058 cells = experiment: Dose-response analysis, A2058 cells; assay type: cell-based; conditions: 10 μM
Procedure: as §1, §2, §3

[4] = system: HeLa, A2352, A2185, LOX-IMVI, A4132, A2024, MDA-MB-231, PC3, A2058 and MCF7 cells; experiment: Viability assay (methylene blue), ten cancer cell lines; assay type: cell-based; conditions: 10 μM, 72 hours, 1% FCS
Procedure: Ten cancer cell lines were treated with either EPE peptide (10 μM; middle bars) or Compound Z56 (3 μM; right bars) or DMSO control (0.1%; left bars) in 1% FCS (fetal calf serum) for 72 hours.
A3252 and A2058 cells were treated either with EPE peptide (10 μM), Z56 (1, 3 or 10 μM) or DMSO control (0.1%). The graphs present the kinetics of cell proliferation at the indicated times. Viable cells were quantified by staining with methylene blue. All results were presented as a fold change of the initial cell number and represent averages ±SE of 3 experiments in triplicate.
as §4, with “For dose-response experiments, cells were treated with indicated concentrations of reagent, fixed and stained after 72 hours as above.” left out

[5] = system: BRAF-mutant, NRAS-mutant and NF1-mutant melanomas; conditions: Arafeh et al., Sci Rep 2017; cited from earlier work

Sequence of interaction of importin7 and ERK1/2 (O95373 whole entry): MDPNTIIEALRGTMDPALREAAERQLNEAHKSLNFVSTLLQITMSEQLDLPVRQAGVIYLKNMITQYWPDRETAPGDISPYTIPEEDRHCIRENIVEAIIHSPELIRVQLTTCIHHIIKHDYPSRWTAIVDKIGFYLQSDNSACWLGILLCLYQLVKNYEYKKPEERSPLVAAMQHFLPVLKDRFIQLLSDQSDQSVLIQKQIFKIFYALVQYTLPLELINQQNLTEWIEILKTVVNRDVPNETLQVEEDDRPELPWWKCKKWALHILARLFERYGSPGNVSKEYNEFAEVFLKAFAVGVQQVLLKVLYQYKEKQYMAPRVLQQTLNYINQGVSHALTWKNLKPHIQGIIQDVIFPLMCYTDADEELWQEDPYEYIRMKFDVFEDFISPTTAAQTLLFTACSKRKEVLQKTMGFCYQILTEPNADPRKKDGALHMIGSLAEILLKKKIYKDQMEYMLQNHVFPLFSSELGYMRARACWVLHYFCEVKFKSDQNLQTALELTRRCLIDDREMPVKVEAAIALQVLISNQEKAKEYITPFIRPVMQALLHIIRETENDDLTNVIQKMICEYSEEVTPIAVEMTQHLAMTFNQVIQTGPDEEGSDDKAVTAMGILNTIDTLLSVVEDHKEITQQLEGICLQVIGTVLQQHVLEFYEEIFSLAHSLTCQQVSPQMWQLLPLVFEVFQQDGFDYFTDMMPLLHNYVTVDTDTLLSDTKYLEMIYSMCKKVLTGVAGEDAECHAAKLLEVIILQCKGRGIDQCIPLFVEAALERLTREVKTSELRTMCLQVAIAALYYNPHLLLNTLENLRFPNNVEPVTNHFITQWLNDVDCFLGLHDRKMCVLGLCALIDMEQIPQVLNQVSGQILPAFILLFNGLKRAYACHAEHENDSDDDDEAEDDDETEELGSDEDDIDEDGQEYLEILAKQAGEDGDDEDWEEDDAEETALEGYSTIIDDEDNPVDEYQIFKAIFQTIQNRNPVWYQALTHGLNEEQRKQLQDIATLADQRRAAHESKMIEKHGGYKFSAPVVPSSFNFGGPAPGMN

EPE peptide: peptide GQLNHILGILGEPEQEDL (SEQ ID NO: 1) conjugated at N-terminus to myristic acid and C-terminal amidated (Myristoyl-GQLNHILGILGEPEQEDL-NH2; SMILES CCCCCCCCCCCCCC(=O)NCC(=O)N[C@@H](CCC(N)=O)C(=O)N[C@@H](CC(C)C)C(=O)N[C@@H](CC(N)=O)C(=O)N[C@@H](Cc1c[nH]cn1)C(=O)N[C@H](C(=O)N[C@@H](CC(C)C)C(=O)NCC(=O)N[C@H](C(=O)N[C@@H](CC(C)C)C(=O)NCC(=O)N[C@@H](CCC(=O)O)C(=O)N1CCC[C@H]1C(=O)N[C@@H](CCC(=O)O)C(=O)N[C@@H](CCC(N)=O)C(=O)N[C@@H](CCC(=O)O)C(=O)N[C@@H](CC(=O)O)C(=O)N[C@@H](CC(C)C)C(N)=O)[C@@H](C)CC)[C@@H](C)CC) [reference compound]
viability of PC3 cells (PC3 cells): only a very modest effect
degree of ERK1/2 nuclear localization induced by TPA (percentage of cells with nuclear ERK1/2 staining) ([1]; 2 hours pretreatment, MCF7, A2352, HB2 and HeLa cells): phenotype similar to the basal state
nuclear accumulation of ERK1/2 upon TPA stimulation ([1]; 2 hours, A2185 and A2352 cells): inhibited
interaction of importin7 and ERK1/2 and nuclear translocation of ERK1/2 [2]: blocks the interaction of importin7 and ERK1/2
proliferation/viability ([3]; 4 Ras-transformed pancreatic cell lines other than Panc-1 and AsPC-1): no major effect
reduction of cell proliferation relative to control ([3]; Ras-wild type BxPC-3 cells): 50%
cell viability and apoptosis ([3]; only 2 of the 7 tested cell lines (Panc-1 and AsPC-1)): reduced cell viability and induced apoptosis
viability of BRAF melanoma cells A2058 (A2058 cells): lack of effect
proliferation of PC3, A2058 and MCF7 cells [4]: not significantly affected
apoptosis / proliferation of EPE-sensitive cell lines ([4]; HeLa, A2352, A2185, LOX-IMVI, A4132, Z2024, MDA-MB-231): induced apoptosis
combination with the MEK inhibitor trametinib, viability of NRAS-mutant melanomas [5]: exhibited synergy
viability of BRAF-mutant, NRAS-mutant and NF1-mutant melanomas [5]: significantly reduced the viability
